According to publication PMC7076255, “A Redox-Sensitive Thiol in Wis1 Modulates the Fission Yeast Mitogen-Activated Protein Kinase Response to H2O2 and Is the Target of a Small Molecule” (Molecular and Cellular Biology, 2020):

Target: T1, Wis1 (Schizosaccharomyces pombe, UniProt P33886)
T1 construct: full length, N-terminal HA3 tag (JJS6, thermal shift) or N-terminal HA and C-terminal His6 tags (JJS7, kinase assay); nmt1 promoter at the chromosomal locus; expressed in S. pombe
T1 sequence (P33886 1-605): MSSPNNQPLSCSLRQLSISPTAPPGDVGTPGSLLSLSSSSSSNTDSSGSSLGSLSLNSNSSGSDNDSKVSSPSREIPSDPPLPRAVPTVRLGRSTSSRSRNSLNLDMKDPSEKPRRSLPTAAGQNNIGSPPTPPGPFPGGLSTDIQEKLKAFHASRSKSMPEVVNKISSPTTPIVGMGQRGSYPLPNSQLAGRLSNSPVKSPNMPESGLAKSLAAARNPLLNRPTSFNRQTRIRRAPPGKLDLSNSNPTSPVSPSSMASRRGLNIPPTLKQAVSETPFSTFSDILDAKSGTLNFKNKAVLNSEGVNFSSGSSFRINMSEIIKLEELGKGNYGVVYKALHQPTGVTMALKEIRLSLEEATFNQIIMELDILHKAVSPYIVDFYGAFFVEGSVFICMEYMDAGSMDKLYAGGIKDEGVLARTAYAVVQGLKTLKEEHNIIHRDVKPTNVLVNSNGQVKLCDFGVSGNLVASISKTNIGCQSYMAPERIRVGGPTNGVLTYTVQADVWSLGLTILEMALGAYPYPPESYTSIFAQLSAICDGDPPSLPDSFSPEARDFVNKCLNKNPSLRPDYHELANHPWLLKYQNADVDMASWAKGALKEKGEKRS
Assay: thermal shift in crude lysate, Western blot of soluble HA-Wis1
Assay type: biochemical

ΔTm at 3 µM: 2 °C
SMILES: CCOc1cccc(-c2cc(=O)c3ccccc3o2)c1N [INR119]
